Consider ten compounds from ChEMBL document CHEMBL1201862, “PubChem BioAssay data set” (2004).

Some test systems named below: MCF7; SW-620; SNB-19; HL-60; OVCAR-8; MDA-N; RPMI-8226; A549; SF-268; CAKI-1; ACHN; SN12C; NCI/ADR-RES; UACC-62; PC-3; SF-295; DU-145; TK-10; HOP-62; SK-MEL-5.
Assay in all cases: NCI anticancer screen, dose series, 48 h

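Following 48 hours of exposure in 96-well plates, responses at five concentrations were used to interpolate endpoints linearly. GI50 marks 50% less growth.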 Active and inactive are the calls of the source. Cut-off read from the data, not from the text of the source: active = GI50 up to about 1.1 µM and inactive = higher.

Turning to `CCOC(=O)C1(C#N)OC(=O)c2cnccc21` (stereo not given), the GI50 in the assay with MCF7, with SW-620, with SNB-19, in the assay on HL-60, in the assay with OVCAR-8 and in the assay with MDA-N was > 100 µM (inactive) each time. Also, the GI50 is > 100 µM (inactive) in the assay on RPMI-8226; > 100 µM (inactive) in the assay with A549; > 100 µM (inactive) with SF-268; > 100 µM (inactive) with CAKI-1; 58.6 µM (inactive) in the assay on ACHN; > 100 µM (inactive) in the assay with SN12C. For the same compound, the GI50 in the assay on NCI/ADR-RES, in the assay on UACC-62, in the assay on PC-3, in the assay on SF-295 and in the assay on DU-145 was > 100 µM (inactive) each time.
`C[n+]1cc2cc(O)c(O)cc2c2ccc3cc(O)c(O)cc3c21.c1ccncc1`: the GI50 in the assay on MCF7 is 2.09 µM (inactive); in the assay on TK-10, 4.01 µM (inactive); in the assay with SW-620, 3.51 µM (inactive); with SNB-19, 1.49 µM (inactive); with OVCAR-8, 3.1 µM (inactive); with HOP-62 it was 2.12 µM (inactive). Moreover, the GI50 was 3.25 µM (inactive) in the assay on MDA-N; 5.4 µM (inactive) with RPMI-8226; 4.05 µM (inactive) in the assay on A549; 2.18 µM (inactive) in the assay with SF-268; 3.05 µM (inactive) in the assay on CAKI-1; 2.69 µM (inactive) with ACHN. The GI50 with SK-MEL-5 was 3.24 µM (inactive); in the assay with SN12C, 2.96 µM (inactive); with NCI/ADR-RES it was 2.3 µM (inactive); with UACC-62 it was 1.75 µM (inactive); with PC-3, 3.37 µM (inactive); in the assay with SF-295 it was 3.39 µM (inactive). Besides, the GI50 in the assay on DU-145 is 3.57 µM (inactive).
On to `CN(C)c1ccc(/C=C2\C[C@H]3[C@@H]4CC=C5C[C@@H](O)CC[C@]5(C)[C@H]4CC[C@]3(C)C2=O)cc1`, for which the GI50 in the assay with MCF7 was 30.5 µM (inactive); in the assay on TK-10, 20.3 µM (inactive); in the assay with SW-620, 30.2 µM (inactive); with SNB-19, 17.1 µM (inactive); in the assay on HL-60, > 100 µM (inactive); in the assay with OVCAR-8, 4.88 µM (inactive). Moreover, the GI50 in the assay on HOP-62 is 13.2 µM (inactive); in the assay with MDA-N it was 32.4 µM (inactive); in the assay on RPMI-8226, 66.8 µM (inactive); in the assay on A549, 19.9 µM (inactive); in the assay with SF-268 it was 13 µM (inactive); in the assay on ACHN it was 16.2 µM (inactive). In addition, the GI50 is 50.7 µM (inactive) in the assay with SK-MEL-5; 20.9 µM (inactive) with SN12C; 19.1 µM (inactive) in the assay on NCI/ADR-RES; 17.4 µM (inactive) in the assay on UACC-62; 13.4 µM (inactive) in the assay with PC-3; 25.6 µM (inactive) with SF-295. In addition, the GI50 in the assay on DU-145 was 44 µM (inactive).
In the case of `CCOC(=O)c1cc2cc(CSc3ccccc3)ccc2oc1=O`, the GI50 was 90.2 µM (inactive) in the assay with MCF7; 57.9 µM (inactive) in the assay on TK-10; > 100 µM (inactive) with SW-620; 46.8 µM (inactive) with SNB-19; > 100 µM (inactive) with OVCAR-8; 51.3 µM (inactive) with HOP-62. In addition, the GI50 was > 100 µM (inactive) with MDA-N; 51.9 µM (inactive) in the assay on RPMI-8226; 83.4 µM (inactive) in the assay on A549; > 100 µM (inactive) with SF-268; > 100 µM (inactive) in the assay with CAKI-1; > 100 µM (inactive) with ACHN. In addition, the GI50 with SK-MEL-5 was > 100 µM (inactive); with SN12C it was > 100 µM (inactive); in the assay on NCI/ADR-RES, > 100 µM (inactive); in the assay on UACC-62, 45.9 µM (inactive); with PC-3, 91.6 µM (inactive); in the assay on SF-295 it was 43.4 µM (inactive). In addition, the GI50 in the assay with DU-145 was 89.1 µM (inactive).
Take `Cc1cn(CCOCCOC(=O)NC(CCCNC(N)=O)C(=O)O)c(=O)[nH]c1=O` (stereo not given): the GI50 in the assay with MCF7, in the assay with TK-10, in the assay with SW-620, with SNB-19, with HL-60 and with OVCAR-8 was > 100 µM (inactive) each time. Moreover, the GI50 in the assay on HOP-62, with MDA-N, in the assay on RPMI-8226, with A549, in the assay with SF-268 and in the assay on CAKI-1 was > 100 µM (inactive) in each case. The GI50 in the assay with ACHN, in the assay on SN12C, with NCI/ADR-RES, with UACC-62, in the assay with PC-3 and in the assay on SF-295 was > 100 µM (inactive) in each case. In addition, the GI50 in the assay on DU-145 is > 100 µM (inactive).
`Cc1sccc1C(=S)Nc1ccc(Cl)c(/C=N/OC(C)(C)C)c1`: the GI50 was 11.8 µM (inactive) with MCF7; 19.1 µM (inactive) in the assay with TK-10; 37.9 µM (inactive) in the assay with SW-620; 16.9 µM (inactive) in the assay with HL-60; 17.1 µM (inactive) in the assay on OVCAR-8; 16 µM (inactive) in the assay on HOP-62. Also, the GI50 is 13.3 µM (inactive) in the assay on MDA-N; 7.31 µM (inactive) in the assay with RPMI-8226; 20.2 µM (inactive) in the assay with A549; 18.3 µM (inactive) with SF-268; 12 µM (inactive) in the assay with CAKI-1; 13.2 µM (inactive) with SK-MEL-5. For the same compound, the GI50 is 12.5 µM (inactive) with SN12C; 17.8 µM (inactive) in the assay with NCI/ADR-RES; 16.6 µM (inactive) in the assay on UACC-62; 15.4 µM (inactive) in the assay with PC-3; 16.7 µM (inactive) with SF-295; 14.6 µM (inactive) with DU-145.
As for `CC(=O)O[C@@H]1[C@H](OC2CCCCC2(c2ccccc2)c2ccccc2)O[N+]([O-])=CC12CCCCC2` (stereo not given in full), the GI50 in the assay on MCF7 was 18.2 µM (inactive); in the assay on TK-10 it was 16.7 µM (inactive); in the assay with SW-620, 16 µM (inactive); in the assay on HL-60, < 0.01 µM (active); in the assay with OVCAR-8 it was 25.5 µM (inactive); with MDA-N, 20.2 µM (inactive). Besides, the GI50 in the assay with RPMI-8226 was 33 µM (inactive); in the assay on A549 it was 17.7 µM (inactive); in the assay with SF-268, 18.6 µM (inactive); in the assay on CAKI-1, 14.4 µM (inactive); in the assay with ACHN, 17.6 µM (inactive); in the assay with SK-MEL-5, 15 µM (inactive). The GI50 with SN12C is 19.6 µM (inactive); in the assay on NCI/ADR-RES, 15.9 µM (inactive); in the assay with UACC-62, 17.7 µM (inactive); in the assay on PC-3 it was 10.8 µM (inactive); with SF-295, 15.7 µM (inactive); in the assay on DU-145, 18.1 µM (inactive).
As for `CC(=O)Oc1cc(-c2oc3cc(OC(C)=O)c(C4OC(CO)C(O)C(O)C4O)c(OC(C)=O)c3c(=O)c2O)c(OC(C)=O)cc1O` (stereo not given), the GI50 in the assay on MCF7, in the assay with TK-10, in the assay with SW-620, with HL-60, with OVCAR-8 and in the assay on HOP-62 was > 100 µM (inactive) in each case. Moreover, the GI50 is > 100 µM (inactive) with MDA-N; 56.4 µM (inactive) in the assay on RPMI-8226; > 100 µM (inactive) in the assay on A549; > 100 µM (inactive) in the assay on CAKI-1; > 100 µM (inactive) in the assay on ACHN; > 100 µM (inactive) with SK-MEL-5. Besides, the GI50 in the assay with SN12C, with NCI/ADR-RES, with UACC-62, in the assay with PC-3, in the assay with SF-295 and with DU-145 was > 100 µM (inactive) in each case.
Take `CC(=O)OCC(OC(C)=O)C(OC(C)=O)C(OC(C)=O)C(/C=N\Nc1nc2ccccc2c(=O)[nH]1)OC(C)=O` (stereo not given): the GI50 in the assay with MCF7, in the assay with SW-620, with SNB-19, in the assay on HL-60, in the assay with OVCAR-8 and in the assay on HOP-62 was > 100 µM (inactive) in each case. Also, the GI50 with MDA-N, with RPMI-8226, with A549, in the assay on SF-268, with CAKI-1 and in the assay with ACHN was > 100 µM (inactive) in each case. The GI50 with SK-MEL-5, with SN12C, with NCI/ADR-RES, in the assay with UACC-62, with PC-3 and in the assay on SF-295 was > 100 µM (inactive) each time. The GI50 in the assay with DU-145 was > 100 µM (inactive).
On to `O=[N+]([O-])c1nccn1CCCNc1c2ccccc2[n+]([O-])c2ccccc12`, for which the GI50 with MCF7, in the assay on TK-10, with SW-620, in the assay on HL-60, in the assay with OVCAR-8 and in the assay on HOP-62 was > 100 µM (inactive) throughout. Further, the GI50 in the assay on MDA-N, in the assay with RPMI-8226, in the assay on A549, in the assay on SF-268, in the assay on CAKI-1 and with ACHN was > 100 µM (inactive) in each case. For the same compound, the GI50 with SK-MEL-5, with SN12C, in the assay on NCI/ADR-RES, in the assay with UACC-62, in the assay on PC-3 and with SF-295 was > 100 µM (inactive) each time. The GI50 in the assay with DU-145 is > 100 µM (inactive).
